Test results reported in patent US11464770B2, “Anticancer pharmaceutical composition” (NATIONAL CANCER CENTER, priority 2016, dated 2022).
Like-named read-outs stand apart in the source and are kept apart here.

Columns and labels:
[1] = test system: lung cancer cell lines (e.g. NCI-H23, NCI-H1229); experiment: Cell based assay, cell viability (CellTiter-Glo), lung cancer cell lines; details: Homo sapiens, 72 hours treatment, CellTiter-Glo
In short: (§1)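 Cell lines seeded, cultured 24 hours, then exposed to compound at final 0 to 2 μM. After a further 72 hours, viability measured by ATP-detection luminescence (CellTiter-Glo).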

brain cancer cell lines = experiment: Cell based assay, cell viability (CellTiter-Glo), brain cancer cell lines; details: Homo sapiens
melanoma cell lines = experiment: Cell based assay, cell viability (CellTiter-Glo), melanoma cell lines; details: Homo sapiens; LOX-IMVI cell line
In short: as §1

[2] = A549 cells, read-out: IC50, lung cancer cell line A549
[3] = DMS 114 cells, read-out: IC50, lung cancer cell line DMS 114
[4] = NCI-H23 cells, read-out: IC50, lung cancer cell line NCI-H23
[5] = NCI-H460 cells, read-out: IC50, lung cancer cell line NCI-H460
[6] = NCI-H522 cells, read-out: IC50, lung cancer cell line NCI-H522
[7] = NCI-H1299 cells, read-out: IC50, lung cancer cell line NCI-H1299
[8] = NCI-H1437 cells, read-out: IC50, lung cancer cell line NCI-H1437
[9] = U138-MG, U-138 MG cell line, read-out: IC50, Brain cancer cell line U-138 MG
[10] = T98G cell line, read-out: IC50, Brain cancer cell line T98G
[11] = U-251 MG cell line, read-out: IC50, Brain cancer cell line U-251 MG

Compound	IC50 [1, 2]	IC50 [1, 3]	IC50 ([1]; MRC-5 cells, read-out: IC50)	IC50 [1, 4]	IC50 [1, 5]	IC50 [1, 6]	IC50 [1, 7]	IC50 [1, 8]	IC50 (brain cancer cell lines; [9])	IC50 (brain cancer cell lines; [10])	IC50 (brain cancer cell lines; [11])	IC50 (melanoma cell lines)
CC(=O)c1c([S+]([O-])Cc2ccc(S(F)(F)(F)(F)F)cc2F)[nH]c2c(Br)ccc(Cl)c2c1=O (stereo not drawn) [Compound 69, 3-acetyl-8-bromo-5-chloro-2-((2-fluoro-4-(pentafluoro-16-sulfanyl)benzyl)sulfinyl)quinolin-4(1H)-one]	1780 nM	> 2000 nM	1050 nM	1130 nM	1620 nM	> 2000 nM	1310 nM	> 10000 nM	1540 nM	> 10000 nM	1160 nM	1120 nM
CC(=O)c1c([S+]([O-])Cc2cccc(S(F)(F)(F)(F)F)c2)[nH]c2c(Br)ccc(Cl)c2c1=O (stereo not drawn) [Compound 77, 3-acetyl-8-bromo-5-chloro-2-((3-(pentafluoro--sulfanyl)benzyl)sulfinyl)quinolin-4(1H)-one]	1840 nM	> 2000 nM	1060 nM	960 nM	1510 nM	> 2000 nM	1320 nM	> 10000 nM	1550 nM	> 2000 nM	1290 nM	1160 nM
CC(=O)c1c([S+]([O-])Cc2ccc(SC(F)(F)F)cc2)[nH]c2c(Cl)ccc(Cl)c2c1=O (stereo not drawn) [Compound 79, 3-acetyl-5,8-dichloro-2-((4-((trifluoromethyl)thio)benzyl)sulfinyl)quinolin-4(1H)-one]	> 2000 nM	> 2000 nM	> 2000 nM	> 2000 nM	> 2000 nM	> 2000 nM	> 2000 nM	> 10000 nM	> 10000 nM	> 10000 nM	> 2000 nM	> 2000 nM
CC(=O)c1c([S+]([O-])Cc2ccc(S(F)(F)(F)(F)F)cc2)[nH]c2c(F)ccc(F)c2c1=O (stereo not drawn) [Compound 80, 3-acetyl-5,8-difluoro-2-((4-(pentafluoro--sulfanyl)benzyl)sulfinyl)quinolin-4(1H)-one]	> 2000 nM	> 2000 nM	> 2000 nM	> 2000 nM	> 2000 nM	> 2000 nM	> 2000 nM	> 10000 nM	> 10000 nM	> 10000 nM	> 2000 nM	> 2000 nM
CC(=O)c1c([S+]([O-])Cc2ccc(C(F)(F)F)o2)[nH]c2c(F)ccc(F)c2c1=O (stereo not drawn) [Compound 81, 3-acetyl-5,8-difluoro-2-(((5-(trifluoromethyl)furan-2-yl)methyl)sulfinyl)quinolin-4(1H)-one]	> 2000 nM	> 2000 nM	> 2000 nM	> 2000 nM	> 2000 nM	> 2000 nM	> 2000 nM	> 10000 nM	> 2000 nM	> 10000 nM	> 2000 nM	> 2000 nM
CC(=O)c1c([S+]([O-])Cc2cc(C)on2)[nH]c2c(F)ccc(F)c2c1=O (stereo not drawn) [Compound 82, 3-acetyl-5,8-difluoro-2-(((5-methylisoxazol-3-yl)methyl)sulfinyl)quinolin-4(1H)-one]	> 2000 nM	> 2000 nM	> 2000 nM	> 2000 nM	> 2000 nM	> 2000 nM	> 2000 nM	> 10000 nM	> 2000 nM	> 10000 nM	> 2000 nM	> 2000 nM
CC(C)C(=O)c1c([S+]([O-])Cc2ccc(SC(F)(F)F)cc2)[nH]c2c(F)ccc(F)c2c1=O (stereo not drawn) [Compound 85, 5,8-difluoro-3-isobutyryl-2-((4-((trifluoromethyl)thio)benzyl)sulfinyl)quinolin-4(1H)-one]	> 2000 nM	> 2000 nM	> 2000 nM	> 2000 nM	> 2000 nM	> 2000 nM	> 2000 nM	> 10000 nM	> 10000 nM	> 10000 nM	> 2000 nM	> 2000 nM
O=C(c1ccccc1)c1c([S+]([O-])Cc2ccc(S(F)(F)(F)(F)F)cc2)[nH]c2c(F)ccc(F)c2c1=O (stereo not drawn) [Compound 87, 3-benzoyl-5,8-difluoro-2-((4-(pentafluoro--sulfanyl)benzyl)sulfinyl)quinolin-4(1H)-one]	> 2000 nM	> 2000 nM	> 2000 nM	> 2000 nM	> 2000 nM	> 2000 nM	> 2000 nM	> 10000 nM	> 10000 nM	> 10000 nM	> 2000 nM	> 2000 nM
Cc1cc(C[S+]([O-])c2[nH]c3c(Cl)ccc(Cl)c3c(=O)c2C(=O)c2ccccc2)no1 (stereo not drawn) [Compound 88, 3-benzoyl-5,8-dichloro-2-(((5-methylisoxazol-3-yl)methyl)sulfinyl)quinolin-4(1H)-one]	> 2000 nM	> 2000 nM	> 2000 nM	> 2000 nM	> 2000 nM	> 2000 nM	> 2000 nM	> 10000 nM	> 10000 nM	> 10000 nM	> 2000 nM	> 2000 nM
CC(=O)c1c([S+]([O-])CN2C(=O)c3ccccc3C2=O)[nH]c2c(Cl)ccc(Cl)c2c1=O (stereo not drawn) [Compound 90, 2-(((3-acetyl-5,8-dichloro-4-oxo-1,4-dihydroquinolin-2-yl)sulfinyl)methyl)isoindoline-1,3-dione]	> 2000 nM	> 2000 nM	> 2000 nM	> 2000 nM	> 2000 nM	> 2000 nM	> 2000 nM	> 10000 nM	> 10000 nM	> 10000 nM	> 2000 nM	> 2000 nM
COC(=O)c1ccc(C[S+]([O-])c2[nH]c3c(Cl)ccc(Cl)c3c(=O)c2C(C)=O)cc1 (stereo not drawn) [Compound 91, methyl 4-(((3-acetyl-5,8-dichloro-4-oxo-1,4-dihydroquinolin-2-yl)sulfinyl)methyl)benzoate]	> 2000 nM	> 2000 nM	> 2000 nM	1800 nM	> 2000 nM	> 2000 nM	> 2000 nM	> 10000 nM	> 2000 nM	> 10000 nM	> 2000 nM	> 2000 nM
COc1cccc2[nH]c(SCc3ccc(S(F)(F)(F)(F)F)cc3)c(C(C)=O)c(=O)c12 [Compound 92, 3-acetyl-5-methoxy-2-((4-(pentafluoro--sulfanyl)benzyl)thio)quinolin-4(1H)-one]	> 2000 nM	> 2000 nM	> 2000 nM	> 2000 nM	> 2000 nM	> 2000 nM	> 2000 nM	> 10000 nM	> 10000 nM	> 10000 nM	> 2000 nM	> 2000 nM
COc1cccc2[nH]c([S+]([O-])Cc3ccc(S(F)(F)(F)(F)F)cc3)c(C(C)=O)c(=O)c12 (stereo not drawn) [Compound 93, 3-acetyl-5-methoxy-2-((4-(pentafluoro--sulfanyl)benzyl)sulfinyl)quinolin-4(1H)-one]	> 2000 nM	> 2000 nM	> 2000 nM	> 2000 nM	> 2000 nM	> 2000 nM	> 2000 nM	> 10000 nM	> 10000 nM	> 10000 nM	> 2000 nM	> 2000 nM
COc1cccc2[nH]c([S+]([O-])Cc3cc(C)on3)c(C(C)=O)c(=O)c12 (stereo not drawn) [Compound 94, 3-acetyl-5-methoxy-2-(((5-methylisoxazol-3-yl)methyl)sulfinyl)quinolin-4(1H)-one]	> 2000 nM	> 2000 nM	> 2000 nM	2070 nM	> 2000 nM	> 2000 nM	> 2000 nM	> 10000 nM	> 2000 nM	> 10000 nM	> 2000 nM	> 2000 nM
Cc1cc(C[S+]([O-])c2[nH]c3c(Br)ccc(Cl)c3c(=O)c2C(=O)C2CC2)no1 (stereo not drawn) [Compound 96, 8-bromo-5-chloro-3-(cyclopropanecarbonyl)-2-(((5-methylisoxazol-3-yl)methyl)sulfinyl)quinolin-4(1H)-one]	> 2000 nM	> 2000 nM	1810 nM	1340 nM	> 2000 nM	1820 nM	1800 nM	> 10000 nM	> 2000 nM	> 10000 nM	1310 nM	> 2000 nM
